Assay results taken from ChEMBL document CHEMBL1201862, “PubChem BioAssay data set” (2004).
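Briefly, cells in 96-well plates were exposed to five compound concentrations for 48 h, and endpoints were estimated by linear interpolation. Abbreviation: GI50, concentration required for 50% inhibition of growth.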 The source made the active and inactive calls. No stated cut-off is given here; in the data, active = GI50 up to about 1.1 µM and inactive = higher.

What was measured:
Assay in all cases: NCI-60 cell line screen, 48 h
ACHN = system: ACHN
LOX IMVI = system: LOX IMVI
NCI-H226 = system: NCI-H226
SK-OV-3 = system: SK-OV-3
SN12C = system: SN12C
SF-268 = system: SF-268
A498 = system: A498
PC-3 = system: PC-3
UO-31 = system: UO-31
RPMI-8226 = system: RPMI-8226
KM12 = system: KM12
HCC 2998 = system: HCC 2998
OVCAR-3 = system: OVCAR-3
NCI-H23 = system: NCI-H23
NCI/ADR-RES = system: NCI/ADR-RES
A549 = system: A549
MDA-MB-231 = system: MDA-MB-231
Malme-3M = system: Malme-3M
SW-620 = system: SW-620
HCT-15 = system: HCT-15

| Compound | GI50 (ACHN) | GI50 (LOX IMVI) | GI50 (NCI-H226) | GI50 (SK-OV-3) | GI50 (SN12C) | GI50 (SF-268) | GI50 (A498) | GI50 (PC-3) | GI50 (UO-31) | GI50 (RPMI-8226) | GI50 (KM12) | GI50 (HCC 2998) | GI50 (OVCAR-3) | GI50 (NCI-H23) | GI50 (NCI/ADR-RES) | GI50 (A549) | GI50 (MDA-MB-231) | GI50 (Malme-3M) | GI50 (SW-620) | GI50 (HCT-15) |
| --- | --- | --- | --- | --- | --- | --- | --- | --- | --- | --- | --- | --- | --- | --- | --- | --- | --- | --- | --- | --- |
| O=C1NC(=S)NC(=O)C1=Cc1cccc2cc3ccccc3cc12 | 1.95 µM (inactive) | 1.67 µM (inactive) | 2.03 µM (inactive) | 2.83 µM (inactive) | 2.32 µM (inactive) | 2.06 µM (inactive) | 1.97 µM (inactive) | 1.74 µM (inactive) | 1.95 µM (inactive) | 1.24 µM (inactive) | 1.98 µM (inactive) | 2.04 µM (inactive) | 1.76 µM (inactive) | 1.87 µM (inactive) | 2.22 µM (inactive) | 3.08 µM (inactive) | 2.01 µM (inactive) | 2.11 µM (inactive) | 2.58 µM (inactive) | 1.68 µM |
| CCOC(=O)C1=C(N2CCCC2)C(=O)C(C(=O)OCC)C1 (stereo not given) | > 100 µM (inactive) | > 100 µM (inactive) | > 100 µM (inactive) | > 100 µM (inactive) | > 100 µM (inactive) | > 100 µM (inactive) | > 100 µM (inactive) | > 100 µM (inactive) | > 100 µM (inactive) | > 100 µM (inactive) | > 100 µM (inactive) | > 100 µM (inactive) | > 100 µM (inactive) | > 100 µM (inactive) | > 100 µM (inactive) | > 100 µM (inactive) | > 100 µM (inactive) | > 100 µM (inactive) | > 100 µM (inactive) | > 100 µM |
| N#CCOc1ccc(/C=C/C(=O)c2ccc(Cl)cc2)cc1 | 34.8 µM (inactive) | 15.6 µM (inactive) | > 100 µM (inactive) | 18.4 µM (inactive) | 39.8 µM (inactive) | 33.9 µM (inactive) | 20.8 µM (inactive) | 43.2 µM (inactive) | 32.8 µM (inactive) | 23.1 µM (inactive) | 22.4 µM (inactive) | 31.7 µM (inactive) | 31.8 µM (inactive) | 24.8 µM (inactive) | 23.9 µM (inactive) | 39.7 µM (inactive) | 25.4 µM (inactive) | 28 µM (inactive) | 22.1 µM (inactive) | 77.6 µM |
| COc1ccc(Cl)cc1NC(=O)O/N=C(\Cl)C(C)C | 2.12 µM (inactive) | 2.08 µM (inactive) | 12.7 µM (inactive) | 18.7 µM (inactive) | 8.49 µM (inactive) | 21.5 µM (inactive) | 21.5 µM (inactive) | 17.4 µM (inactive) | 13.8 µM (inactive) | 2.06 µM (inactive) | 16.8 µM (inactive) | 16.4 µM (inactive) | 6 µM (inactive) | 17.6 µM (inactive) | 5.27 µM (inactive) | 18.8 µM (inactive) | 6.22 µM (inactive) | 1.94 µM (inactive) | 2.7 µM (inactive) | 2.64 µM |
| CC1=Nc2ccccc2/C1=C\c1c(C)[nH]c2ccccc12 | 15.7 µM (inactive) | 13.1 µM (inactive) | 15.2 µM (inactive) | 15.6 µM (inactive) | 21.4 µM (inactive) | 11.2 µM (inactive) | 17.5 µM (inactive) | 13.6 µM (inactive) | 13.6 µM (inactive) | 16.3 µM (inactive) | 13.2 µM (inactive) | 15.5 µM (inactive) | 12.6 µM (inactive) | 13 µM (inactive) | 16.2 µM (inactive) | 23.1 µM (inactive) | 13.4 µM (inactive) | 14.1 µM (inactive) | 11 µM (inactive) | 12.9 µM |
